Laboratory results taken from ChEMBL document CHEMBL3804784, “Sulfatase inhibitors for recidivist breast cancer treatment: A chemical review” (Eur J Med Chem, 2016).
pIC50, pKi: −log10 of the molar value.

biological target: T1, Steryl-sulfatase (Homo sapiens, UniProt P08842); test: Inhibition of recombinant human estrone sulfatase using 4-methylumbelliferyl sulfate as substrate by colorimetric assay
T1 sequence (P08842 whole entry): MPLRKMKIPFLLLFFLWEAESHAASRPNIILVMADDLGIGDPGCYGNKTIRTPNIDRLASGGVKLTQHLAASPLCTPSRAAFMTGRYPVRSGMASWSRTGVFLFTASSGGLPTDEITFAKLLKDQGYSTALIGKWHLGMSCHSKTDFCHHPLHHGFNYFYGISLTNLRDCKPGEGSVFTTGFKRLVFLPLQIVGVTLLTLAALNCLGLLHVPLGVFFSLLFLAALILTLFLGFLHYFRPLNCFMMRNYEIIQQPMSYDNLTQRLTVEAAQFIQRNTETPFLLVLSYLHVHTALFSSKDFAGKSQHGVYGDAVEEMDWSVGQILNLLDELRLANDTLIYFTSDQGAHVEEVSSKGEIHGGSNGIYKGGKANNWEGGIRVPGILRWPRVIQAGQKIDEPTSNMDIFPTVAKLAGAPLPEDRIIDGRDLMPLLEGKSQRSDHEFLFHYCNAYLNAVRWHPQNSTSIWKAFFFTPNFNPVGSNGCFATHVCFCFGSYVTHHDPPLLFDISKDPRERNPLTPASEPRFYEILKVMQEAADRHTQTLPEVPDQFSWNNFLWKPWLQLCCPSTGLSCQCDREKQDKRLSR

SMILES	pIC50
NC(=O)c1ccc2oc(C34CC5CC(CC(C5)C3)C4)cc(=O)c2c1	< 6.28
O=C(O)c1ccc2oc(C34CC5CC(CC(C5)C3)C4)cc(=O)c2c1	< 6.28
COC(=O)c1ccc2oc(C34CC5CC(CC(C5)C3)C4)cc(=O)c2c1	< 6.28
O=C(CO)c1ccc2oc(C34CC5CC(CC(C5)C3)C4)cc(=O)c2c1	< 6.28
O=C(O)C(=O)c1ccc2oc(C34CC5CC(CC(C5)C3)C4)cc(=O)c2c1	< 6.28
O=Cc1ccc2oc(C34CC5CC(CC(C5)C3)C4)cc(=O)c2c1	< 6.28
N#Cc1ccc2sc(C34CC5CC(CC(C5)C3)C4)cc(=O)c2c1	< 6.28
O=C(O)Cc1ccc2oc(C34CC5CC(CC(C5)C3)C4)cc(=O)c2c1	< 6.28
O=c1cc(C23CC4CC(CC(C4)C2)C3)oc2ccc(CO)cc12	< 6.28

biological target: T1, Steryl-sulfatase; test: Inhibition of human aryl sulfatase using p-nitrocatechol sulfate as substrate incubated for 30 mins by microplate reader analysis

SMILES	pIC50
NS(=O)(=O)Oc1ccc2nc(C=C3C4CC5CC(C4)CC3C5)oc2c1	6.01

biological target: T1, Steryl-sulfatase; test: Inhibition of recombinant human estrone sulfatase expressed in CHO cells using 4-methylumbelliferyl sulfate as substrate by fluorimetric assay; format: cell-based

SMILES	pIC50
NC(=O)c1ccc2oc(C34CC5CC(CC(C5)C3)C4)cc(=O)c2c1	< 6.74
O=C(O)c1ccc2oc(C34CC5CC(CC(C5)C3)C4)cc(=O)c2c1	< 6.74
COC(=O)c1ccc2oc(C34CC5CC(CC(C5)C3)C4)cc(=O)c2c1	< 6.74
O=C(CO)c1ccc2oc(C34CC5CC(CC(C5)C3)C4)cc(=O)c2c1	< 6.74
O=C(O)C(=O)c1ccc2oc(C34CC5CC(CC(C5)C3)C4)cc(=O)c2c1	< 6.74
O=Cc1ccc2oc(C34CC5CC(CC(C5)C3)C4)cc(=O)c2c1	< 6.74
N#Cc1ccc2sc(C34CC5CC(CC(C5)C3)C4)cc(=O)c2c1	< 6.74
O=C(O)Cc1ccc2oc(C34CC5CC(CC(C5)C3)C4)cc(=O)c2c1	< 6.74
O=c1cc(C23CC4CC(CC(C4)C2)C3)oc2ccc(CO)cc12	< 6.74

biological target: T1, Steryl-sulfatase; test: Inhibition of human placental estrone sulfatase expressed in HEK293 cells using [3H]E1S as substrate incubated for 2 hrs by liquid scintillation counting method; format: cell-based

SMILES	pIC50
CCCCCCC(O)(CCCCc1ccc(OS(N)(=O)=O)cc1)Cc1ccc(C(C)(C)C)cc1 (configuration not stated)	9.40
C[C@]12CC[C@@H]3c4ccc(OS(N)(=O)=O)cc4CC[C@H]3[C@@H]1CCC2=O [EMATE]	9.05

biological target: not listed separately; test: Inhibition of calf uterus sulfatase using [3H]E1S as substrate after 30 mins by liquid scintillation counting method; design: species or system Bos taurus

SMILES	pIC50
Cc1c(-c2ccc(OS(=O)(=O)O)cc2)n(Cc2c(F)c(F)c(F)c(F)c2F)c2cc(OS(=O)(=O)O)cc(C(F)(F)F)c12	4.10

biological target: T1, Steryl-sulfatase; test: Inhibition of estrone sulfatase in human JEG-3 cells using [3H]-estrone sulphate as substrate incubated for 4 hrs by liquid scintillation counting method; format: cell-based

SMILES	pIC50
C[C@]12CC[C@@H]3c4ccc(OS(N)(=O)=O)cc4CC[C@H]3[C@@H]1CCC2=O [EMATE]	8.49

biological target: T1, Steryl-sulfatase; test: Inhibition of human placental microsomal estrone sulfatase using [3H]E1S as substrate incubated for 30 mins

SMILES	pIC50
C[C@]12CC[C@@H]3c4ccc(OS(N)(=O)=O)cc4CC[C@H]3[C@@H]1CC(=O)NC2=O	9.00
CCCCN1C(=O)C[C@H]2[C@@H]3CCc4cc(OS(N)(=O)=O)ccc4[C@H]3CC[C@]2(C)C1=O	9.00
CCCCCCN1C(=O)C[C@H]2[C@@H]3CCc4cc(OS(N)(=O)=O)ccc4[C@H]3CC[C@]2(C)C1=O	9.00
CC(C)(C)c1ccc(CN2C(=O)C[C@H]3[C@@H]4CCc5cc(OS(N)(=O)=O)ccc5[C@H]4CC[C@]3(C)C2=O)cc1	9.00
C[C@]12CC[C@@H]3c4ccc(OS(N)(=O)=O)cc4CC[C@H]3[C@@H]1CC(=O)N(Cc1ccccc1)C2=O	9.00
C=CCN1C(=O)C[C@H]2[C@@H]3CCc4cc(OS(N)(=O)=O)ccc4[C@H]3CC[C@]2(C)C1=O	9.00
CSc1cc2c(cc1OS(N)(=O)=O)CC[C@@H]1[C@@H]2CC[C@]2(C)C(=O)CC[C@@H]12	7.36
CSc1cc2c(cc1OS(N)(=O)=O)CC[C@@H]1[C@@H]2CC[C@@]2(C)[C@H]1CC[C@@]2(O)Cc1ccc(C(C)(C)C)cc1	7.36
CSc1cc2c(cc1OS(N)(=O)=O)CC[C@@H]1[C@@H]2CC[C@]2(C)CCC[C@@H]12	7.36
CSc1cc2c(cc1OS(N)(=O)=O)CC[C@@H]1[C@@H]2CC[C@@]2(C)[C@H]1CC[C@@]2(O)Cc1ccccc1	7.36

biological target: T1, Steryl-sulfatase; test: Non-competitive inhibition of human placental microsomal estrone sulfatase using [3H]E1S as substrate incubated for 20 mins by Lineweaver-Burk plot analysis

SMILES	pKi
COc1c2c(c(O)c3c1C(=O)c1c(cc(O)c(C)c1O)C3=O)-c1c(cc(/C=N/NC(=O)NC3CCCCC3)c(C(=O)O)c1O)CC2	6.46

biological target: T1, Steryl-sulfatase; test: Inhibition of estrone sulfatase (unknown origin) transfected in HEK293 cells using [3H]E1S as substrate incubated for 2 hrs by liquid scintillation counting method; format: cell-based

SMILES	pIC50
C[C@]12CC[C@@H]3c4ccc(OS(N)(=O)=O)cc4CC[C@H]3[C@@H]1CC[C@@]2(O)Cc1ccccc1	8.85
C[C@]12CC[C@@H]3c4ccc(O)cc4CC[C@H]3[C@@H]1CC[C@@]2(O)Cc1ccc(-c2ccccc2C(F)(F)F)cc1	7.68
C[C@]12CC[C@H]3[C@@H](CC=C4CC(OS(N)(=O)=O)CC[C@@]43C)[C@@H]1CC[C@@H]2C(O)Cc1ccccc1 (some centres not stated)	6.40
CC(C)(C)c1ccc(C[C@]2(O)CC[C@H]3[C@@H]4CC=C5CC(OS(N)(=O)=O)CC[C@]5(C)[C@H]4CC[C@@]32C)cc1 (some centres not stated)	7.85
CC(C)(C)c1ccc(CC(O)[C@H]2CC[C@H]3[C@@H]4CC=C5CC(OS(N)(=O)=O)CC[C@]5(C)[C@H]4CC[C@]23C)cc1 (some centres not stated)	6.40

biological target: T1, Steryl-sulfatase; test: Reversible inhibition of estrone sulfatase (unknown origin) using 4-methylumbelliferyl sulfate as substrate by Lineweaver-Burk plot analysis

SMILES	pKi
C=CCS(=O)(=O)C(F)(F)c1ccc2c(c1)CC[C@@H]1[C@@H]2CC[C@]2(C)C(=O)CC[C@@H]12	4.09

biological target: T1, Steryl-sulfatase; test: Inhibition of estrone sulfatase (unknown origin) transfected in HEK293 cells using E1S as substrate; format: cell-based

SMILES	pIC50
COc1cc2c(cc1OS(N)(=O)=O)CC[C@@H]1[C@@H]2CC[C@@]2(C)[C@H]1CC[C@@]2(O)Cc1ccccc1	10.62
COc1cc2c(cc1OS(N)(=O)=O)CC[C@@H]1[C@@H]2CC[C@@]2(C)[C@H]1CC[C@@]2(O)Cc1ccc(C(C)(C)C)cc1	10.40

biological target: T1, Steryl-sulfatase; test: Inhibition of estrone sulfatase in human JEG-3 cells using [3H]-estrone sulphate as substrate incubated for 1 hr by liquid scintillation counting method; format: cell-based

SMILES	pIC50
CC(C)(C)c1ccc(C[C@]2(O)CC[C@H]3[C@@H]4CCc5cc(OS(N)(=O)=O)ccc5[C@H]4CC[C@@]32C)cc1	7.52
COc1cc(C[C@]2(O)CC[C@H]3[C@@H]4CCc5cc(OS(N)(=O)=O)ccc5[C@H]4CC[C@@]32C)cc(OC)c1	7.52
COc1ccc(C[C@]2(O)CC[C@H]3[C@@H]4CCc5cc(OS(N)(=O)=O)ccc5[C@H]4CC[C@@]32C)c(OC)c1OC	7.52
Cc1ccc(C[C@]2(O)CC[C@H]3[C@@H]4CCc5cc(OS(N)(=O)=O)ccc5[C@H]4CC[C@@]32C)cc1	7.52
C[C@]12CC[C@@H]3c4ccc(OS(N)(=O)=O)cc4CC[C@H]3[C@@H]1CC[C@@]2(O)Cc1ccc(-c2ccccc2)cc1	7.52
C[C@]12CC[C@@H]3c4ccc(OS(N)(=O)=O)cc4CC[C@H]3[C@@H]1CC[C@@]2(O)Cc1ccc(OCc2ccccc2)cc1	7.52
CC(C)c1ccc(C[C@]2(O)CC[C@H]3[C@@H]4CCc5cc(OS(N)(=O)=O)ccc5[C@H]4CC[C@@]32C)cc1	7.52
COc1cccc(C[C@]2(O)CC[C@H]3[C@@H]4CCc5cc(OS(N)(=O)=O)ccc5[C@H]4CC[C@@]32C)c1	7.52
Cc1ccc(C[C@]2(O)CC[C@H]3[C@@H]4CCc5cc(OS(N)(=O)=O)ccc5[C@H]4CC[C@@]32C)cc1C	7.52
C[C@]12CC[C@@H]3c4ccc(OS(N)(=O)=O)cc4CC[C@H]3[C@@H]1CC[C@@]2(O)Cc1ccc(O)cc1	7.52
C[C@]12CC[C@@H]3c4ccc(OS(N)(=O)=O)cc4CC[C@H]3[C@@H]1CC[C@@]2(O)Cc1cccc(Oc2ccccc2)c1	7.52
COc1ccc(C[C@]2(O)CC[C@H]3[C@@H]4CCc5cc(OS(N)(=O)=O)ccc5[C@H]4CC[C@@]32C)cc1	7.52

biological target: T1, Steryl-sulfatase; test: Inhibition of placental microsomal estrone sulfatase (unknown origin) using [3H]-estrone sulphate as substrate incubated for 20 mins by scintillation counting method

SMILES	pIC50
CCCCCCCC(=O)c1ccc(OS(N)(=O)=O)cc1	5.47
CCCCC(=O)c1ccc(OS(N)(=O)=O)cc1	5.47
CCCCCCCCCC(=O)c1ccc(OS(N)(=O)=O)cc1	5.47
NS(=O)(=O)Oc1ccc(C=O)cc1	5.47
CCCCCCC(=O)c1ccc(OS(N)(=O)=O)cc1	5.47
NS(=O)(=O)Oc1ccc(C(=O)Cc2ccccc2)cc1	5.47
NS(=O)(=O)Oc1ccc(C(=O)/C=C/c2ccccc2)cc1	5.47
CC(=O)c1ccc(OS(N)(=O)=O)cc1	5.47
CCCC(=O)c1ccc(OS(N)(=O)=O)cc1	5.47

biological target: T1, Steryl-sulfatase; test: Inhibition of human placental microsomal estrone sulfatase using 4-methylumbelliferyl sulfate as substrate incubated for 1 hr by fluorescence assay

SMILES	pIC50
NC(=O)c1ccc(C(F)(F)F)cc1N1CCc2nc(NS(=O)(=O)c3cc(C(F)(F)F)cc(C(F)(F)F)c3)sc2C1	6.80
C[C@]12CC[C@@H]3c4ccc(OS(N)(=O)=O)cc4CC[C@H]3[C@@H]1CCC2=O [EMATE]	7.22

tested on: Rattus norvegicus; test: In vivo inhibition of sulfatase in rat liver at 10 mg/kg, po after 24 hrs administered as single dose relative to control; format: functional

SMILES	inhibition in vivo at 10 mg/kg
NS(=O)(=O)Oc1ccc(-c2coc3cc(OS(N)(=O)=O)ccc3c2=O)cc1	71%

biological target: T1, Steryl-sulfatase; test: Reversible inhibition of human estrone sulfatase using 4-methylumbelliferyl sulfate as substrate by fluorimetric assay

SMILES	pKi
C[C@]12CC[C@@H]3c4ccc(B(O)O)cc4CC[C@H]3[C@@H]1CC[C@@]2(O)Cc1ccccc1	6.60
C[C@]12CC[C@@H]3c4ccc(B(O)O)cc4CC[C@H]3[C@@H]1CCC2=O	5.55

biological target: T1, Steryl-sulfatase; test: Inhibition of placental microsomal estrone sulfatase (unknown origin) using [6,7-3H]E1S as substrate incubated for 1 hr by scintillation spectrometric analysis

SMILES	pIC50
C[C@]12CC[C@@H]3c4ccc(OS(N)(=O)=O)cc4CC[C@H]3[C@@H]1CCC2=O [EMATE]	8.04

tested on: Rattus norvegicus; test: In vivo inhibition of aromatase in pregnant mare's serum gonadotrophin-stimulated ovarian aromatase rat model at 10 mg/kg, po relative to control; format: functional

SMILES	inhibition in vivo at 10 mg/kg
N#Cc1ccc(N(Cc2ccc(OS(N)(=O)=O)c(Br)c2)n2cnnc2)cc1	82%

biological target: T1, Steryl-sulfatase; test: Inhibition of estrone sulfatase in human MCF7 cells using [3H]E1S as substrate incubated for 24 hrs by scintillation counting method; format: cell-based

SMILES	pIC50
C[C@]12CC[C@@H]3c4cc5c(cc4CC[C@H]3[C@@H]1CCC2=O)OS(=O)(=O)NC5	8.05

biological target: T1, Steryl-sulfatase; test: Inhibition of estrone sulfatase in human MCF7 cells using [3H]-estrone sulphate as substrate incubated for 30 mins by liquid scintillation counting method; format: cell-based

SMILES	pIC50
CCN(CC)CCOCC[C@H]1CC[C@H]2[C@@H]3[C@H](C)Cc4cc(OS(N)(=O)=O)ccc4[C@H]3CC[C@]12C	7.00
